Measurements: patent publication US20160199392A1, “METHOD FOR INDIVIDUALIZED DRUG THERAPY” (Autotelic LLC, priority 2015, published 2016)
Marks after values point to notes of the source that are not given here.

How the values were obtained:
[1] = Combined plots / meta analysis of published pharmacokinetic data; assay type: in vivo, patients
Procedure: Accordingly, the dose proportionality may not be as is described by the package insert for Celebrex®. As a result of the failure to determine and pursue target PK ranges, in some instances patients receiving 100 mg patients may not get enough of the drug and the 200 mg patients may receive too much of the drug.
In other words, the most efficacious celecoxib dosage is highly individualized among the elderly. Unexpectedly, elderly here is defined as patients greater than >40 or >50, not the usually definition of elderly (age greater>65).
Based on the wide range of AUC values, some instances patients receiving 100 mg patients may not get enough of the drug and the 200 mg patients may receive too much of the drug (FIG. 2).

[2] = system: Signs and Symptoms of Osteoarthritis; settings: cited from earlier work
pain = settings: 100 mg dose, for the duration of the six week study; cited from earlier work
[3] = Naproxen group, at 12 weeks, n = 198

Structure (SMILES) | variability of PK parameters (AUC) by age group ([1]; applicant's meta analysis, one dose AUC, elderly (>40 or >50) vs younger patients, FIG. 3) | variability of pharmacokinetics ([1]; combined plots of published pharmacokinetic data, FIG. 2, 100 mg and 200 mg doses) | side effects reported ([2]; 100 mg dose compared with 200 mg dose) | side effects reported (pain) | Withdrawal due to treatment failure (%) ([2]; Naproxen group, 12 weeks, n = 198) | Patient global assessment condition improved (%) [2, 3] | Patient global assessment condition worsened (%) [2, 3] | Physician's global assessment condition improved (%) [2, 3] | Physician's global assessment condition worsened (%) [2, 3] | Mean +/− SEM Osteoarthritis Severity Index ([2]; Naproxen group, at 12 weeks, scale 0 to 24, negative change indicating improvement) | Mean +/− SEM WOMAC Osteoarthritis Index composite score ([2]; Naproxen group, at 12 weeks, scale 0 to 96, negative change indicating improvement)
Cc1ccc(-c2cc(C(F)(F)F)nn2-c2ccc(S(N)(=O)=O)cc2)cc1 [celecoxib, Celecoxib] | higher variability than younger patients | unexpectedly high | fewer side effects | fewer side effects |  |  |  |  |  |  | 
COc1ccc2cc([C@H](C)C(=O)O)ccc2c1 [Naproxen, naproxen] |  |  |  |  | 26‡ % | 29‡ % | 2% | 33‡ % | 1% | −3.1 +/− 0.30‡ | −11.9 +/− 1.29‡
